Columns and labels:
Type in all cases: functional
[1] = system: M14; experiment: Growth inhibition of human M14 cells at 10^-5 M incubated for 48 hrs by sulforhodamine B assay; settings: M14, 48 h, read-out: GI
[2] = system: TK-10; experiment: Growth inhibition of human TK10 cells at 10^-5 M incubated for 48 hrs by sulforhodamine B assay; settings: TK-10, 48 h, read-out: GI
[3] = system: IGROV-1; experiment: Growth inhibition of human IGROV1 cells at 10^-5 M incubated for 48 hrs by sulforhodamine B assay; settings: IGROV-1, 48 h, read-out: GI
[4] = system: HOP-92; experiment: Growth inhibition of human HOP92 cells at 10^-5 M incubated for 48 hrs by sulforhodamine B assay; settings: HOP-92, 48 h, read-out: GI
[5] = system: A498; experiment: Growth inhibition of human A498 cells at 10^-5 M incubated for 48 hrs by sulforhodamine B assay; settings: A498, 48 h, read-out: GI
[6] = system: NCI-H522; experiment: Growth inhibition of human NCI-H522 cells at 10^-5 M incubated for 48 hrs by sulforhodamine B assay; settings: NCI-H522, 48 h, read-out: GI
[7] = system: HT-29; experiment: Growth inhibition of human HT-29 cells at 10^-5 M incubated for 48 hrs by sulforhodamine B assay; settings: HT-29, 48 h, read-out: GI
[8] = system: DU-145; experiment: Growth inhibition of human DU145 cells at 10^-5 M incubated for 48 hrs by sulforhodamine B assay; settings: DU-145, 48 h, read-out: GI
[9] = system: SW-620; experiment: Growth inhibition of human SW620 cells at 10^-5 M incubated for 48 hrs by sulforhodamine B assay; settings: SW-620, 48 h, read-out: GI
[10] = system: KM12; experiment: Growth inhibition of human KM12 cells at 10^-5 M incubated for 48 hrs by sulforhodamine B assay; settings: KM12, 48 h, read-out: GI
[11] = system: NCI-H226; experiment: Growth inhibition of human NCI-H226 cells at 10^-5 M incubated for 48 hrs by sulforhodamine B assay; settings: NCI-H226, 48 h, read-out: GI
[12] = system: A549; experiment: Growth inhibition of human A549/ATCC cells at 10^-5 M incubated for 48 hrs by sulforhodamine B assay; settings: A549, 48 h, read-out: GI
[13] = system: NCI-H322M; experiment: Growth inhibition of human NCI-H322M cells at 10^-5 M incubated for 48 hrs by sulforhodamine B assay; settings: read-out: GI
[14] = system: MCF7; experiment: Growth inhibition of human MCF7 cells at 10^-5 M incubated for 48 hrs by sulforhodamine B assay; settings: MCF7, 48 h, read-out: GI
[15] = system: UO-31; experiment: Growth inhibition of human UO31 cells at 10^-5 M incubated for 48 hrs by sulforhodamine B assay; settings: UO-31, 48 h, read-out: GI
[16] = system: BT-549; experiment: Growth inhibition of human BT549 cells at 10^-5 M incubated for 48 hrs by sulforhodamine B assay; settings: BT-549, 48 h, read-out: GI
[17] = system: NCI-H23; experiment: Growth inhibition of human NCI-H23 cells at 10^-5 M incubated for 48 hrs by sulforhodamine B assay; settings: NCI-H23, 48 h, read-out: GI
[18] = system: SR; experiment: Growth inhibition of human SR cells at 10^-5 M incubated for 48 hrs by sulforhodamine B assay; settings: read-out: GI
[19] = system: MDA-MB-435; experiment: Growth inhibition of human MDA-MB-435 cells at 10^-5 M incubated for 48 hrs by sulforhodamine B assay; settings: MDA-MB-435, 48 h, read-out: GI
[20] = system: EKVX; experiment: Growth inhibition of human EKVX cells at 10^-5 M incubated for 48 hrs by sulforhodamine B assay; settings: read-out: GI
[21] = system: ACHN; experiment: Growth inhibition of human ACHN cells at 10^-5 M incubated for 48 hrs by sulforhodamine B assay; settings: read-out: GI
[22] = system: SF-295; experiment: Growth inhibition of human SF295 cells at 10^-5 M incubated for 48 hrs by sulforhodamine B assay; settings: SF-295, 48 h, read-out: GI
[23] = system: HL-60(TB); experiment: Growth inhibition of human HL-60(TB) cells at 10^-5 M incubated for 48 hrs by sulforhodamine B assay; settings: HL-60, 48 h, read-out: GI
[24] = system: CAKI-1; experiment: Growth inhibition of human Caki1 cells at 10^-5 M incubated for 48 hrs by sulforhodamine B assay; settings: CAKI-1, 48 h, read-out: GI
[25] = system: CCRF-CEM; experiment: Growth inhibition of human CCRF-CEM cells at 10^-5 M incubated for 48 hrs by sulforhodamine B assay; settings: read-out: GI
[26] = system: OVCAR-8; experiment: Growth inhibition of human OVCAR8 cells at 10^-5 M incubated for 48 hrs by sulforhodamine B assay; settings: OVCAR-8, 48 h, read-out: GI
[27] = system: SK-MEL-28; experiment: Growth inhibition of human SK-MEL-28 cells at 10^-5 M incubated for 48 hrs by sulforhodamine B assay; settings: SK-MEL-28, 48 h, read-out: GI
[28] = system: HCT-116; experiment: Growth inhibition of human HCT116 cells at 10^-5 M incubated for 48 hrs by sulforhodamine B assay; settings: HCT-116, 48 h, read-out: GI
[29] = system: K562; experiment: Growth inhibition of human K562 cells at 10^-5 M incubated for 48 hrs by sulforhodamine B assay; settings: K562, 48 h, read-out: GI
[30] = system: HOP-62; experiment: Growth inhibition of human HOP62 cells at 10^-5 M incubated for 48 hrs by sulforhodamine B assay; settings: HOP-62, 48 h, read-out: GI
[31] = system: SF-268; experiment: Growth inhibition of human SF268 cells at 10^-5 M incubated for 48 hrs by sulforhodamine B assay; settings: SF-268, 48 h, read-out: GI
[32] = system: MDA-MB-231; experiment: Growth inhibition of human MDA-MB-231 cells at 10^-5 M incubated for 48 hrs by sulforhodamine B assay; settings: MDA-MB-231, 48 h, read-out: GI
[33] = system: MDA-MB-468; experiment: Growth inhibition of human MDA-MB-468 cells at 10^-5 M incubated for 48 hrs by sulforhodamine B assay; settings: MDA-MB-468, 48 h, read-out: GI
[34] = system: MOLT-4; experiment: Growth inhibition of human MOLT4 cells at 10^-5 M incubated for 48 hrs by sulforhodamine B assay; settings: MOLT-4, 48 h, read-out: GI
[35] = system: Malme-3M; experiment: Growth inhibition of human MALME-3M cells at 10^-5 M incubated for 48 hrs by sulforhodamine B assay; settings: read-out: GI
[36] = system: T47D; experiment: Growth inhibition of human T47D cells at 10^-5 M incubated for 48 hrs by sulforhodamine B assay; settings: read-out: GI
[37] = system: OVCAR-3; experiment: Growth inhibition of human OVCAR3 cells at 10^-5 M incubated for 48 hrs by sulforhodamine B assay; settings: OVCAR-3, 48 h, read-out: GI
[38] = system: OVCAR-4; experiment: Growth inhibition of human OVCAR4 cells at 10^-5 M incubated for 48 hrs by sulforhodamine B assay; settings: OVCAR-4, 48 h, read-out: GI
[39] = system: Hs-578T; experiment: Growth inhibition of human Hs 578T cells at 10^-5 M incubated for 48 hrs by sulforhodamine B assay; settings: read-out: GI

Row | SMILES | inhibition of growth at 10 µM [1] | inhibition of growth at 10 µM [2] | inhibition of growth at 10 µM [3] | inhibition of growth at 10 µM [4] | inhibition of growth at 10 µM [5] | inhibition of growth at 10 µM [6] | inhibition of growth at 10 µM [7] | inhibition of growth at 10 µM [8] | inhibition of growth at 10 µM [9] | inhibition of growth at 10 µM [10] | inhibition of growth at 10 µM [11] | inhibition of growth at 10 µM [12] | inhibition of growth at 10 µM [13] | inhibition of growth at 10 µM [14] | inhibition of growth at 10 µM [15] | inhibition of growth at 10 µM [16] | inhibition of growth at 10 µM [17] | inhibition of growth at 10 µM [18] | inhibition of growth at 10 µM [19] | inhibition of growth at 10 µM [20] | other results
1 | O=[N+]([O-])c1cccc(C2NC(=S)Nc3c2sc2ccc(Cl)cc32)c1 (stereo not drawn) | 2.86% | -6.1% | 27.5% | 6.43% | 19.7% | 13.7% | 4% | -8.3% | -0.61% | 1.91% | 20.5% | 2.45% | 6.48% | -8.3% | -6.1% | -0.23% | 14.5% | 20.3% | -3.92% | 26.5% | inhibition of growth at 10 µM [21]: 13%; inhibition of growth at 10 µM [22]: 5.63%; inhibition of growth at 10 µM [23]: -2.41%; inhibition of growth at 10 µM [24]: 22%; inhibition of growth at 10 µM [25]: -11.8%; inhibition of growth at 10 µM [26]: 4.42%; inhibition of growth at 10 µM [27]: -8.2%; inhibition of growth at 10 µM [28]: 13.4%; inhibition of growth at 10 µM [29]: 10.6%; inhibition of growth at 10 µM [30]: 21.8%; inhibition of growth at 10 µM [31]: 4.17%; inhibition of growth at 10 µM [32]: 23.7%; inhibition of growth at 10 µM [33]: 5.75%; inhibition of growth at 10 µM [34]: 9.49%; inhibition of growth at 10 µM [35]: 17.3%; inhibition of growth at 10 µM [36]: 30.9%; inhibition of growth at 10 µM [37]: 7.97%; inhibition of growth at 10 µM [38]: 8.46%; inhibition of growth at 10 µM [39]: 11.4%
2 | S=C1Nc2c(sc3ccc(Cl)cc23)C(c2ccc3ccccc3c2)N1 (stereo not drawn) | 7.85% | -25.5% | 16.8% | 27.5% | 14.9% | 17.7% | 0.32% | -6.73% | 3.99% | -6.6% | 20.6% | 7.47% | 13.9% | -6.73% | -25.5% | -9.88% | 15.2% | 19.4% | -2.5% | 14.6% | inhibition of growth at 10 µM [21]: 12.4%; inhibition of growth at 10 µM [22]: 3.23%; inhibition of growth at 10 µM [23]: -2.53%; inhibition of growth at 10 µM [24]: 27.5%; inhibition of growth at 10 µM [25]: -3.09%; inhibition of growth at 10 µM [26]: 8.23%; inhibition of growth at 10 µM [27]: -2.16%; inhibition of growth at 10 µM [28]: 9.94%; inhibition of growth at 10 µM [29]: 4%; inhibition of growth at 10 µM [30]: 10.1%; inhibition of growth at 10 µM [31]: 10.3%; inhibition of growth at 10 µM [32]: 23%; inhibition of growth at 10 µM [33]: 4.47%; inhibition of growth at 10 µM [34]: 7.43%; inhibition of growth at 10 µM [35]: 18.4%; inhibition of growth at 10 µM [36]: 22.5%; inhibition of growth at 10 µM [37]: 3.25%; inhibition of growth at 10 µM [38]: 11%; inhibition of growth at 10 µM [39]: 8.86%
